Measurements: patent US4956357A (priority 1984, dated 1990)
Values after ≈ are worked out from the molar mass of the structure shown.

Key:
human estrogen receptor = assay: Binding to estrogen receptor; details: heptanoate ester
estradiol = assay: Plasma estradiol after DHT-hep; format: in vivo, human; details: for mean estradiol level: before 23.8±3.2
Method: (§1) Four pubertal boys, ages 14-16 years with gynecomastia which had lasted for more than 16 months and who all had breast diameters of more than 4 cm were studied. Their breast diameters ranged from 4.0 to 7.3 cm and breast areas from 13.5 to 41.4 cm^2 with mean breast area (±SEM) 24.3±4.1 cm^2.
(§2) The patients were given 200 mg DHT-hep in sesame oil intramuscularly. […] Subsequent testing was at 2, 3 and 4 weeks, and then just prior to each dose of DHT-hep. […] In two boys, the dose of DHT-hep was increased to 400 mg. Treatment lasted 16 weeks. The patients were examined before each injection of DHT-hep and at two months and six months after therapy. Patients' unpaired, or when appropriate, paired tests were used to determine significant differences (p less than 0.05). Results were all expressed as mean±Standard Error.

gynecomastia = assay: Treatment of gynecomastia in pubertal boys (breast diameter and area); format: in vivo, human
Method: as §1, §2

LH [1] = assay: 24-hour urinary LH; format: in vivo, human; details: after 1 week of treatment; before 13.0±1.3
Method: as §2

male external genitalia = assay: Use of DHT-hep as an androgen (development of male external genitalia); format: in vivo, human
From the text: DHT-hep was given to two patients for the purpose of stimulating development of the male external genitalia. One was a person with hypogonadotrophic hypogonadism. […] The second patient was a child in early puberty with qynecomastia.

Solubility in sesame oil = format: physicochemical; details: organic solvent or mixture, 37° C., limit of solubility
Method: (This was the limit of solubility of DHT-hep in sesame oil at 37° C. The warm sesame oil mixture was filtered in a laminar flow hood through a 0.20 micron filter into sterile injection vials. The vials were sealed, tested for sterility and pyroqens, and stored at room temperature.

testosterone = assay: Plasma testosterone after DHT-hep; format: in vivo, human; details: for mean plasma testosterone: before 283.8±87.5
Method: as §1, §2

LH [2] = assay: Plasma LH after DHT-hep; format: in vivo, human
Method: as §1, §2

FSH [3] = assay: Plasma FSH after DHT-hep; format: in vivo, human; details: for mean plasma FSH: before 190.5±50.7
Method: as §1, §2

FSH [4] = assay: 24-hour urinary FSH; format: in vivo, human; details: after 1 week of treatment; before 8.4±0.8
Method: as §2

[5] = Plasma DHT after intramuscular DHT-hep; format: in vivo, human
Method: as §1, §2

[6] = another set of tests, 10 adolescent patients
[7] = injections every two to three weeks
[8] = mean ± SE, two months after therapy
[9] = subject four, 200 mg every 3 wks, 2 mo. post treatment
[10] = subject one, 400 mg every 3 wks, 2 mo. post treatment
[11] = subject three, 200 mg every 2 wks, 2 mo. post treatment
[12] = subject two, 400 mg every 3 wks, 2 mo. post treatment
[13] = child in early puberty with gynecomastia, 4 months
[14] = person, 200 mg/month i.m., 6 months

Structure (SMILES): CCCCCCC(=O)O[C@H]1CC[C@H]2[C@@H]3CC[C@H]4CC(=O)CC[C@]4(C)[C@H]3CC[C@]12C [DHT-hep, dihydrotestosterone heptanoate]
- binding to human estrogen receptor (human estrogen receptor): not binding tightly
- plasma estradiol change (estradiol; DHT-hep i.m., four boys): statistically significant decreases
- plasma estradiol change (estradiol; [6]): reduction
- Estradiol (estradiol; injection, general statement): suppression
- maintenance of estradiol suppression (estradiol; [7]): maintained
- mean estradiol level (estradiol; mean ± SE, 16 weeks): 12.8 ± 1.6 pg/mL
- plasma estradiol (estradiol; [8]): 18.8 ± 2.5 pg/mL
- mean estradiol level (estradiol; mean ± SE, two weeks): 10.8 ± 0.8 pg/mL
- time of maximal suppression of estradiol (estradiol; post injection, all subjects): two
- Estradiol (estradiol; [9]): 22 pg/mL
- Estradiol (estradiol; subject four, 200 mg every 3 wks, after 16 wks treatment, before 30): < 10 pg/mL
- Estradiol (estradiol; [10]): 12 pg/mL
- Estradiol (estradiol; subject one, 400 mg every 3 wks, after 16 wks treatment, before 16): < 10 pg/mL
- Estradiol (estradiol; [11]): 18 pg/mL
- Estradiol (estradiol; subject three, 200 mg every 2 wks, after 16 wks treatment, before 28): 15 pg/mL
- Estradiol (estradiol; [12]): 23 pg/mL
- Estradiol (estradiol; subject two, 400 mg every 3 wks, after 16 wks treatment, before 21): 16 pg/mL
- residual estradiol levels (estradiol; two of the four boys, LH and testosterone suppressed): significant estradiol levels persisted
- estradiol suppression at 200 mg (estradiol; two subjects, 200 mg dose): not adequately suppressed
- breast size change (gynecomastia; [6]): significant reduction in breast size
- regression of breast tissue (gynecomastia; intramuscular injections, four adolescent boys): regression of breast tissue in all four adolescent boys
- mean breast area (gynecomastia; mean ± SE, four boys, after 16 weeks of treatment, before 24.3±4.1, p less than 0.002): 7.0±1.5 cm^2
- increase in breast size on follow-up (gynecomastia; patient four, followed for nine months): no increase in breast size
- decrease in breast area (gynecomastia; range of four boys, 16 weeks): 66.6 to 77.5%
- regrowth of breast tissue (gynecomastia; six to nine months after therapy was discontinued): no regrowth of breast tissue
- % Decrease in Breast Area (gynecomastia; [9]): 70.1%
- Breast Area (gynecomastia; [9]): 4.0 cm^2
- Breast Diameter (gynecomastia; [9]): 2.3 cm
- % Decrease in Breast Area (gynecomastia; subject four, 200 mg every 3 wks, after 16 wks treatment): 70.1%
- Breast Diameter (gynecomastia; subject four, 200 mg every 3 wks, after 16 wks treatment, before 4.0): 2.3 cm
- Breast Area (gynecomastia; subject four, 200 mg every 3 wks, after 16 wks treatment, before 13.5): 4.0 cm^2
- % Decrease in Breast Area (gynecomastia; [10]): 75.5%
- Breast Area (gynecomastia; [10]): 6.0 cm^2
- Breast Diameter (gynecomastia; [10]): 2.6 cm
- % Decrease in Breast Area (gynecomastia; subject one, 400 mg every 3 wks, after 16 wks treatment): 75.2%
- Breast Diameter (gynecomastia; subject one, 400 mg every 3 wks, after 16 wks treatment, before 5.6): 2.7 cm
- Breast Area (gynecomastia; subject one, 400 mg every 3 wks, after 16 wks treatment, before 24.6): 6.1 cm^2
- % Decrease in Breast Area (gynecomastia; [11]): 77.5%
- Breast Area (gynecomastia; [11]): 4.0 cm^2
- Breast Diameter (gynecomastia; [11]): 2.3 cm
- % Decrease in Breast Area (gynecomastia; subject three, 200 mg every 2 wks, after 16 wks treatment): 77.5%
- Breast Diameter (gynecomastia; subject three, 200 mg every 2 wks, after 16 wks treatment, before 4.8): 2.3 cm
- Breast Area (gynecomastia; subject three, 200 mg every 2 wks, after 16 wks treatment, before 17.7): 4.0 cm^2
- % Decrease in Breast Area (gynecomastia; [12]): 69.9%
- Breast Area (gynecomastia; [12]): 12.6 cm^2
- Breast Diameter (gynecomastia; [12]): 3.3 cm
- % Decrease in Breast Area (gynecomastia; subject two, 400 mg every 3 wks, after 16 wks treatment): 66.6%
- Breast Diameter (gynecomastia; subject two, 400 mg every 3 wks, after 16 wks treatment, before 7.3): 4.2 cm
- Breast Area (gynecomastia; subject two, 400 mg every 3 wks, after 16 wks treatment, before 41.4): 13.9 cm^2
- regrowth of breast tissue (gynecomastia; two and six months after therapy was discontinued): No regrowth of breast tissue occurred in any subject
- 24-hour urinary LH (LH [1]): 7.4±3 IU/day
- penile length change (male external genitalia; [13]): penile length increased significantly
- pubic and auxiliary hair (male external genitalia; [13]): pubic and auxiliary hair increased
- androgenic effects (male external genitalia; general statement): enlargement of the male genitalia, growth of pubic hair, growth of facial hair, and increase in height and weight
- erections and ejaculations (male external genitalia; [14]): erections and ejaculations were reported
- muscle mass (male external genitalia; [14]): significant increase in muscle mass
- pubic hair (male external genitalia; [14]): Pubic hair increased
- penile diameter (male external genitalia; person, hypogonadotrophic hypogonadism, 200 mg/month i.m., 6 months, from 1.5): 2.5 cm
- penile length (male external genitalia; person, hypogonadotrophic hypogonadism, 200 mg/month i.m., 6 months, from 4 cm): 8 cm
- solubility (Solubility in sesame oil): 190 mg/mL (≈ 472 mM)
- plasma testosterone change (testosterone; DHT-hep i.m., four boys): statistically significant decreases
- plasma testosterone change (testosterone; [6]): reduction
- plasma testosterone (testosterone; [13]): suppressed
- Testosterone (testosterone; injection, general statement): suppression
- maintenance of testosterone suppression (testosterone; [7]): maintained
- mean plasma testosterone (testosterone; mean ± SE, 16 weeks): 33.8 ± 3.2 ng/dL
- plasma testosterone (testosterone; [8]): 214.9 ± 34.8 ng/dL
- mean plasma testosterone (testosterone; mean ± SE, two weeks): 29.5 ± 3.3 ng/dL
- time of rebound of testosterone to pretreatment levels (testosterone; post injection): four
- time of maximal suppression of testosterone (testosterone; post injection, all subjects): two
- Testosterone (testosterone; [9]): 297 ng/dL
- Testosterone (testosterone; subject four, 200 mg every 3 wks, after 16 wks treatment, before 517): 40 ng/dL
- Testosterone (testosterone; [10]): 178 ng/dL
- Testosterone (testosterone; subject one, 400 mg every 3 wks, after 16 wks treatment, before 129): < 25 ng/dL
- Testosterone (testosterone; [11]): 244 ng/dL
- Testosterone (testosterone; subject three, 200 mg every 2 wks, after 16 wks treatment, before 317): 34 ng/dL
- Testosterone (testosterone; [12]): 140 ng/dL
- Testosterone (testosterone; subject two, 400 mg every 3 wks, after 16 wks treatment, before 174): 36 ng/dL
- plasma LH change (LH [2]; [6]): reduction
- plasma LH (LH [2]; [13]): suppressed
- LH (LH [2]; injection, general statement): suppression
- further suppression of plasma LH (LH [2]; plasma LH low before treatment in three patients): not statistically significant
- LH (LH [2]; [9]): 14 ng/mL
- LH (LH [2]; subject four, 200 mg every 3 wks, after 16 wks treatment, before 25): < 11 ng/mL
- LH (LH [2]; [10]): < 11 ng/mL
- LH (LH [2]; subject one, 400 mg every 3 wks, after 16 wks treatment, before less than 11): < 11 ng/mL
- LH (LH [2]; [11]): 27 ng/mL
- LH (LH [2]; subject three, 200 mg every 2 wks, after 16 wks treatment, before less than 11): < 11 ng/mL
- LH (LH [2]; [12]): 19 ng/mL
- LH (LH [2]; subject two, 400 mg every 3 wks, after 16 wks treatment, before 15): < 11 ng/mL
- plasma FSH change (FSH [3]; DHT-hep i.m., four boys): statistically significant decreases
- plasma FSH change (FSH [3]; [6]): reduction
- FSH (FSH [3]; injection, general statement): suppression
- mean plasma FSH (FSH [3]; mean ± SE, 16 weeks): 40.3 ± 7.3 ng/mL
- plasma FSH (FSH [3]; [8]): 121.5 ± 17.4 ng/mL
- mean plasma FSH (FSH [3]; mean ± SE, two weeks): 58.8 ± 18.5 ng/mL
- FSH (FSH [3]; [9]): 150 ng/mL
- FSH (FSH [3]; subject four, 200 mg every 3 wks, after 16 wks treatment, before 334): < 27 ng/mL
- FSH (FSH [3]; [10]): 73 ng/mL
- FSH (FSH [3]; subject one, 400 mg every 3 wks, after 16 wks treatment, before 96): 34 ng/mL
- FSH (FSH [3]; [11]): 120 ng/mL
- FSH (FSH [3]; subject three, 200 mg every 2 wks, after 16 wks treatment, before 175): 61 ng/mL
- FSH (FSH [3]; [12]): 143 ng/mL
- FSH (FSH [3]; subject two, 400 mg every 3 wks, after 16 wks treatment, before 157): 39 ng/mL
- 24-hour urinary FSH (FSH [4]): 2.9±0.1 IU/day
- DHT levels ([5]; injection, general statement): elevation
- increase in plasma DHT ([5]; one week after injection of 200 mg DHT-hep): 5-8 fold
